This test addresses T1, recombinant human DPP-1 (Cathepsin C) (Homo sapiens, UniProt P53634).
T1 construct: made in house
The test is described as follows: DPP-1 Inhibition Assay (In Vitro), fluorogenic substrate GR-AMC. To be noted: room temperature; 0.15 nM DPP-1, 10 uM GR-AMC, pH 7.0; average where tested multiple times. The format is biochemical. As to the method: Test compounds were assessed for DPP-1 (Cathepsin C) inhibitory activity using a fluorogenic substrate, GR-AMC (Glycine-Arginine-amino-4-methylcoumarin, Bachem, 1-1215). The amount of amino-methylcoumarin released is proportional to the DPP-1 activity, and the reaction is monitored kinetically with a Molecular Devices plate reader using black 96-well plates.
All compounds were tested under room temperature conditions. The assay buffer consisted of 50 mM HEPES, pH 7.0, 100 mM NaCl, 2 mM glutathione (GSH), and 0.002% TWEEN 20. GSH and TWEEN 20 were added to the buffer fresh daily. Just prior to use, an in-house preparation of recombinant human DPP-1 (240 μM stock, MW 49.6 kD) was diluted 600-fold in assay buffer containing fresh 2 mM dithiothreitol (DTT) to activate the enzyme, then diluted into assay buffer (without DTT) 133-fold for a DPP-1 working solution of 3 nM. Test compounds were diluted in DMSO for 20× their final assay concentrations.
Additions to a 96-well black Costar 3915 plates were as follows: 90 μL of 11 μM GR-AMC, 5 μL test compound (followed by mixing), and 5 μL 3 nM DPP1 to start the reaction. Fluorescent reactions were monitored kinetically at 360 nm excitation, 440 nm emission on a Molecular Devices Spectramax XPS reader. The Softmax Pro software of the reader determined the initial velocity of the selected data (the first 3-5 minutes of the reaction), and the best linear regression fit of the initial kinetic data. Final assay conditions were 0.15 nM DPP-1, 10 uM GR-AMC, 50 mM HEPES, pH 7.0, 100 mM NaCl, 2 mM GSH, 0.002% TWEEN 20, 1 uM DTT, 5.0% DMSO. Initial velocity rates were plotted vs. test compound concentration by use of a four-parameter logistics equation (nonlinear regression, sigmoidal dose-response (variable slope), with fixed Hill (1.0) using GraphPad Prism® software for determination of DPP-1 IC50. Within-run assay coefficient of variation (CV) was generally <10%; between-run CV <20%.
Representative compounds of the present invention were tested according to the procedure as described above, with results as listed in Table 2, below. Additionally, Table 2 below lists the measured mass for said representative compounds of the present invention, more particularly the mass of the MH^+ ion.

Consider two compounds from US8633322B2, “Alkynyl derivatives useful as DPP-1 inhibitors” (Janssen Pharmaceutica NV, priority 2009, dated 2014).

SMILES strings stand for the structures.

T1 sequence (P53634 25-463): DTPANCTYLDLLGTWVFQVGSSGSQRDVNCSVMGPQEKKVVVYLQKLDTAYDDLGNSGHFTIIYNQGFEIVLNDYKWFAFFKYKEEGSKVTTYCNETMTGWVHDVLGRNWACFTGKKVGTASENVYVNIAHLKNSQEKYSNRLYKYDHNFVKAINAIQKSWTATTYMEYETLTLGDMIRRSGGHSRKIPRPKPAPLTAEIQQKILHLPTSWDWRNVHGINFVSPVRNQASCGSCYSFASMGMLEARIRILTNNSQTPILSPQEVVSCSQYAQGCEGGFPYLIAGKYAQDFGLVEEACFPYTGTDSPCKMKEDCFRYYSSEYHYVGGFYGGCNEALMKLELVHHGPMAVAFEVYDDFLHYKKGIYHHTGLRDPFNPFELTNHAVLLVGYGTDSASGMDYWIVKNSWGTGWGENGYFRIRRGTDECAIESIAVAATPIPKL

The IC50 is the point on the concentration scale where inhibition reaches its midpoint. Regarding `CC[C@H](N)C(=O)NCCCC#Cc1cccc(OC2CCNCC2)c1` [Compound 9], the IC50 was determined as 1.37 µM.
For `C#CC[C@H](N)C(=O)NCCCC#Cc1cccc(-c2ccccc2)c1` [Compound 24], the IC50 is 0.4 µM.
